Measured values published in PubChem BioAssay AID2060501 (Molecular Pharmacology Branch, DTP, NCI, 2025).

Test system: 282377-053-R-J1-PDC complex spheroids, viability
Experiment: Anticancer human tumor 282377-053-R-J1-PDC patient-derived colon adenocarcinoma cell line growth inhibition [GQUAD]
Conditions: for IC50: curve of first compound; for viability, T/C: stronger effect = lower value
In short: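 Multi-cell-type spheroids of tumor cells with HUVEC and mesenchymal stem cells, treated with drug combinations. Concentrations descend in half-log steps from near clinical Cmax, or from 10 microM where Cmax is unknown; viability read-out.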

[1] = second compound 0.0316 µM, first compound 0.0316 µM
[2] = second compound 0.0316 µM, first compound 0.1 µM
[3] = second compound 0.0316 µM, first compound 0.316 µM
[4] = second compound 0.0316 µM, first compound 1 µM
[5] = second compound 0.0316 µM, first compound 3.16 µM
[6] = second compound 0.0316 µM, first compound 10 µM
[7] = second compound 0.1 µM, first compound 0.0316 µM
[8] = second compound 0.1 µM, first compound 0.1 µM
[9] = second compound 0.1 µM, first compound 0.316 µM
[10] = second compound 0.1 µM, first compound 1 µM
[11] = second compound 0.1 µM, first compound 3.16 µM
[12] = second compound 0.1 µM, first compound 10 µM
[13] = second compound 0.316 µM, first compound 0.0316 µM
[14] = second compound 0.316 µM, first compound 0.1 µM
[15] = second compound 0.316 µM, first compound 0.316 µM
[16] = second compound 0.316 µM, first compound 1 µM
[17] = second compound 0.316 µM, first compound 3.16 µM
[18] = second compound 0.316 µM, first compound 10 µM
[19] = second compound 1 µM, first compound 0.0316 µM
[20] = second compound 1 µM, first compound 0.1 µM
[21] = second compound 1 µM, first compound 0.316 µM
[22] = second compound 1 µM, first compound 1 µM
[23] = second compound 1 µM, first compound 3.16 µM
[24] = second compound 1 µM, first compound 10 µM
[25] = second compound 3.16 µM, first compound 0.0316 µM
[26] = second compound 3.16 µM, first compound 0.1 µM
[27] = second compound 3.16 µM, first compound 0.316 µM
[28] = second compound 3.16 µM, first compound 1 µM
[29] = second compound 3.16 µM, first compound 3.16 µM
[30] = second compound 3.16 µM, first compound 10 µM
[31] = second compound 10 µM, first compound 0.0316 µM
[32] = second compound 10 µM, first compound 0.1 µM
[33] = second compound 10 µM, first compound 0.316 µM
[34] = second compound 10 µM, first compound 1 µM
[35] = second compound 10 µM, first compound 3.16 µM
[36] = second compound 10 µM, first compound 10 µM
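Note: spheroids exposed to compounds for 7 days before readout.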
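Throughout, for viability, T/C: percent of vehicle DMSO control viability with 100% = untreated-like growth.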

**Q.** `CC(C)(O)C1CCC(Nc2ccc3ncc(-c4cccc(C(F)(F)F)c4)n3n2)CC1` (centres undefined) + CN(C)c1ccc(Nc2c3ccc(NC(=O)CCN4CCCC4)cc3nc3cc(NC(=O)CCN4CCCC4)ccc23)cc1 was tested. Which IC50 (second compound 0.0316 µM) did it give?
**A.** Its IC50 is 1800 nM.

**Q.** What about the IC50 (second compound 0.1 µM) of the same molecule?
**A.** The IC50 was 2150 nM.

**Q.** What about the IC50 (second compound 0.316 µM) of the same molecule?
**A.** Its IC50 is 2000 nM.

**Q.** And the IC50 (second compound 1 µM)?
**A.** Its IC50 is 1750 nM.

**Q.** What about the IC50 (second compound 3.16 µM) of the same molecule?
**A.** The IC50 was 1650 nM.

**Q.** And the IC50 (second compound 10 µM)?
**A.** The IC50 was 1430 nM.

**Q.** What about the viability, T/C [1] of the same molecule?
**A.** Its viability, T/C is 121%.

**Q.** And the viability, T/C [2]?
**A.** The viability, T/C was 100%.

**Q.** And the viability, T/C [3]?
**A.** Its viability, T/C is 74%.

**Q.** And the viability, T/C [4]?
**A.** The viability, T/C was 76.4%.

**Q.** What about the viability, T/C [5] of the same molecule?
**A.** The viability, T/C was 21%.

**Q.** And the viability, T/C [6]?
**A.** Its viability, T/C is 29%.

**Q.** What about the viability, T/C [7] of the same molecule?
**A.** The viability, T/C was 123%.

**Q.** And the viability, T/C [8]?
**A.** Its viability, T/C is 85%.

**Q.** What about the viability, T/C [9] of the same molecule?
**A.** The viability, T/C was 76.7%.

**Q.** What about the viability, T/C [10] of the same molecule?
**A.** Its viability, T/C is 87.4%.

**Q.** And the viability, T/C [11]?
**A.** The viability, T/C was 22.7%.

**Q.** And the viability, T/C [12]?
**A.** The viability, T/C was 39.8%.

**Q.** And the viability, T/C [13]?
**A.** Its viability, T/C is 106%.

**Q.** What about the viability, T/C [14] of the same molecule?
**A.** The viability, T/C was 86%.

**Q.** And the viability, T/C [15]?
**A.** Its viability, T/C is 64.9%.

**Q.** What about the viability, T/C [16] of the same molecule?
**A.** Its viability, T/C is 86.5%.

**Q.** And the viability, T/C [17]?
**A.** Its viability, T/C is 22.2%.

**Q.** What about the viability, T/C [18] of the same molecule?
**A.** Its viability, T/C is 29.8%.

**Q.** And the viability, T/C [19]?
**A.** Its viability, T/C is 94%.

**Q.** And the viability, T/C [20]?
**A.** Its viability, T/C is 75.4%.

**Q.** What about the viability, T/C [21] of the same molecule?
**A.** The viability, T/C was 85.6%.

**Q.** What about the viability, T/C [22] of the same molecule?
**A.** The viability, T/C was 73.1%.

**Q.** And the viability, T/C [23]?
**A.** The viability, T/C was 19.6%.

**Q.** What about the viability, T/C [24] of the same molecule?
**A.** The viability, T/C was 31.3%.

**Q.** And the viability, T/C [25]?
**A.** Its viability, T/C is 100%.

**Q.** And the viability, T/C [26]?
**A.** Its viability, T/C is 97.2%.

**Q.** What about the viability, T/C [27] of the same molecule?
**A.** The viability, T/C was 105%.

**Q.** What about the viability, T/C [28] of the same molecule?
**A.** The viability, T/C was 71%.

**Q.** And the viability, T/C [29]?
**A.** The viability, T/C was 23.4%.

**Q.** And the viability, T/C [30]?
**A.** Its viability, T/C is 21.8%.

**Q.** And the viability, T/C [31]?
**A.** The viability, T/C was 97.3%.

**Q.** What about the viability, T/C [32] of the same molecule?
**A.** The viability, T/C was 95.5%.

**Q.** What about the viability, T/C [33] of the same molecule?
**A.** The viability, T/C was 83.2%.

**Q.** What about the viability, T/C [34] of the same molecule?
**A.** The viability, T/C was 64.7%.

**Q.** And the viability, T/C [35]?
**A.** Its viability, T/C is 18.3%.

**Q.** And the viability, T/C [36]?
**A.** The viability, T/C was 19.1%.

**Q.** For `COc1ncnc(C2CC2)c1-c1ncc2cnn(Cc3ccc(-c4nc(C(F)(F)F)cn4C(C)C)cc3)c2n1` + CN(C)c1ccc(Nc2c3ccc(NC(=O)CCN4CCCC4)cc3nc3cc(NC(=O)CCN4CCCC4)ccc23)cc1, which IC50 (second compound 0.0316 µM) is on record?
**A.** Its IC50 is > 10000 nM.

**Q.** And the IC50 (second compound 0.1 µM)?
**A.** Its IC50 is > 10000 nM.

**Q.** What about the IC50 (second compound 0.316 µM) of the same molecule?
**A.** Its IC50 is > 10000 nM.

**Q.** And the IC50 (second compound 1 µM)?
**A.** The IC50 was > 10000 nM.

**Q.** And the IC50 (second compound 3.16 µM)?
**A.** Its IC50 is > 10000 nM.

**Q.** What about the IC50 (second compound 10 µM) of the same molecule?
**A.** The IC50 was > 10000 nM.

**Q.** What about the viability, T/C [1] of the same molecule?
**A.** Its viability, T/C is 108%.

**Q.** And the viability, T/C [2]?
**A.** The viability, T/C was 83.7%.

**Q.** What about the viability, T/C [3] of the same molecule?
**A.** The viability, T/C was 95.1%.

**Q.** What about the viability, T/C [4] of the same molecule?
**A.** The viability, T/C was 76.5%.

**Q.** And the viability, T/C [5]?
**A.** The viability, T/C was 88.1%.

**Q.** What about the viability, T/C [6] of the same molecule?
**A.** Its viability, T/C is 66.2%.

**Q.** What about the viability, T/C [7] of the same molecule?
**A.** Its viability, T/C is 97.1%.

**Q.** What about the viability, T/C [8] of the same molecule?
**A.** The viability, T/C was 90.2%.

**Q.** And the viability, T/C [9]?
**A.** The viability, T/C was 102%.

**Q.** What about the viability, T/C [10] of the same molecule?
**A.** The viability, T/C was 87.6%.

**Q.** And the viability, T/C [11]?
**A.** Its viability, T/C is 81.4%.

**Q.** And the viability, T/C [12]?
**A.** The viability, T/C was 76.7%.

**Q.** What about the viability, T/C [13] of the same molecule?
**A.** Its viability, T/C is 88.3%.

**Q.** And the viability, T/C [14]?
**A.** The viability, T/C was 95.8%.

**Q.** And the viability, T/C [15]?
**A.** Its viability, T/C is 86.6%.

**Q.** What about the viability, T/C [16] of the same molecule?
**A.** The viability, T/C was 78.5%.

**Q.** And the viability, T/C [17]?
**A.** The viability, T/C was 87.6%.

**Q.** What about the viability, T/C [18] of the same molecule?
**A.** The viability, T/C was 77.8%.

**Q.** What about the viability, T/C [19] of the same molecule?
**A.** The viability, T/C was 84.5%.

**Q.** What about the viability, T/C [20] of the same molecule?
**A.** The viability, T/C was 83.4%.

**Q.** And the viability, T/C [21]?
**A.** The viability, T/C was 93%.

**Q.** And the viability, T/C [22]?
**A.** Its viability, T/C is 75.4%.

**Q.** And the viability, T/C [23]?
**A.** Its viability, T/C is 79.6%.

**Q.** What about the viability, T/C [24] of the same molecule?
**A.** Its viability, T/C is 80.8%.

**Q.** What about the viability, T/C [25] of the same molecule?
**A.** Its viability, T/C is 92.1%.

**Q.** What about the viability, T/C [26] of the same molecule?
**A.** Its viability, T/C is 85.8%.

**Q.** What about the viability, T/C [27] of the same molecule?
**A.** The viability, T/C was 88.2%.

**Q.** And the viability, T/C [28]?
**A.** The viability, T/C was 86.4%.

**Q.** And the viability, T/C [29]?
**A.** The viability, T/C was 75%.

**Q.** What about the viability, T/C [30] of the same molecule?
**A.** Its viability, T/C is 77.7%.

**Q.** And the viability, T/C [31]?
**A.** Its viability, T/C is 85.4%.

**Q.** What about the viability, T/C [32] of the same molecule?
**A.** Its viability, T/C is 66.8%.

**Q.** And the viability, T/C [33]?
**A.** Its viability, T/C is 74.8%.

**Q.** And the viability, T/C [34]?
**A.** Its viability, T/C is 66.3%.

**Q.** What about the viability, T/C [35] of the same molecule?
**A.** Its viability, T/C is 94.8%.

**Q.** What about the viability, T/C [36] of the same molecule?
**A.** Its viability, T/C is 82.3%.
